Literature values in patent US20150045288A1, “COMPOSITION” (priority 2012, published 2015).
Where two headings read alike, the source gives them in different places.

Conditions: 50% ethanol solution

For difficidin, the “t90 (time at which 90% of the inhibitory substance remains as tested by HPLC)” value (pH 3.5, room temperature) is given as 2 h and the “t90 (time at which 90% of the inhibitory substance remains as tested by HPLC)” value (pH 11, room temperature) is given as 17 h.
